Experimental data published in US12459899B2, “Isoquinolinone derivatives, method for preparing the same, and pharmaceutical composition for preventing or treating poly(ADP-ribose) polymerase-1-related diseases, comprising the same as active ingredient” (DIGMBIO. INC., priority 2019, dated 2025).

Columns and labels:
[1] = molecular target: PARP-1 (poly[ADP-ribose] polymerase 1) enzyme (Homo sapiens (Human), UniProt P09874); experiment: PARP-1 (poly[ADP-ribose] polymerase 1) enzyme inhibitory ability, Trevigen assay kit; assay type: biochemical; settings: for IC50: PARP-1 enzyme activity; for inhibition at 0.001 µM: 1 nM compound, read-out: PAR P-1 Inhibitory ability at 1 nM
How it was run: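 After the 1 hour PARP reaction, wells were washed with PBS containing 0.1% triton X-100 and then PBS. Strep-HRP (50 μL) was bound for 1 hour, wells washed again, and 50 μL of TACS-sapphire substrate developed 15 minutes in the dark. Reactions were stopped with 50 μL of 5% phosphoric acid and absorbance read at 450 nm on a Victor3 reader.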

[2] = system: rat model for dry macular degeneration (sodium iodate); experiment: Retinal layer protection of rats in sodium iodate model for dry macular degeneration; assay type: in vivo; settings: 8-week-old rats, SI 50 mg/kg i.p., compound single intraperitoneal injection 15 mg/kg, H&E
Procedure: In order to evaluate the inhibitory effect (protective effect) of the compounds according to the present invention on reducing the thickness of the retinal layer of rats in dry macular degeneration-like cells, the following experiment was performed.
Specifically, 8-week-old rats were intraperitoneally injected with 50 mg/kg of sodium iodate (SI) to degenerate the retinal pigment epithelium and the photoreceptor cell layer to create a simulated animal model for dry macular degeneration. Retinal degeneration was observed 1 week after SI administration.
After a single intraperitoneal injection of Example 46 or Example 1 at a concentration of 15 mg/kg to the rat model for dry macular degeneration, the inhibitory effect (protective effect) on reducing the thickness of the retinal layer of the rats was evaluated.
In order to quantify the reduction of retinal thickness, the eyes extracted from the rats were fixed in a 4% glutaraldehyde solution for 3 hours and then embedded with paraffin. After preparing 5 μm-thick tissue fragments, the fragments were stained with a hematoxylin-eosin (H&E) solution and photographed with an optical microscope to measure the thickness of the retinal outer nuclear layer (ONL) of the retina. As a result, the thickness (μm) of the retinal ONL of the control group was calculated and expressed as 100% (n=3 times). […]

ARPE-19 cells = experiment: Retinal pigment epithelial cell line protection, H2O2-induced apoptosis, MTS activity assay; assay type: cell-based, human; settings: 0.5 mM H2O2, 6 hours
Procedure: In order to evaluate the protective effect of the compounds according to the present invention on the retinal pigment epithelial cell line under the condition of inducing dry macular degeneration-like apoptosis, the following experiment was performed.
Specifically, ARPE-19 cells, which is a human retinal pigment epithelial cell line, were cultured in DMEM:F12 (Dulbecco's Modified Eagle's Medium: Ham's nutrient mixture F-12) containing 10% fetal bovine serum (FBS) and 1% penicillin/streptomycin. The cells were aliquoted in a well plate so that the number of cells per well was 1×10^4, and incubated in a 37° C. CO2 incubator for 12 hours. DMSO (0.1%) (control group) alone or various concentrations of the compounds of Examples 1 to 276 according to the present invention (experimental groups) were treated in a medium mixed with 0.5 mM H2O2 (control group), and then, the cells were further cultured in a 37° C. CO2 incubator for 6 hours to induce apoptosis.
The degree of apoptosis was measured by an MTS (3-(4,5-dimethylthiazol-2-yl)-5-(3-carboxymethoxyphenyl)-2-(4-sulfophenyl)-2H-tetrazolium) activity assay method manufactured by Promega, the cell MTS activity level in the normal medium condition was set to 100%, and the relative degree of cell protection was converted and determined based on the MTS activity level of the control group in the 0.5 mM H2O2 treatment condition.
The MTS activity assay evaluation method is a method of measuring the activity of NADH dehydrogenase in mitochondria in cells, and MTS is reduced by NADH dehydrogenase to form colored formazan. Through this method, live cells can be quantified, and cell proliferation and apoptosis can be quantified. After the above-mentioned damage stimulus was treated to the retinal pigment epithelial cell line, 15 μL of MTS activity assay kit manufactured by Promega was added to each well, and then reacted in a 37° C. CO2 incubator for 2 hours. The reacted wells were quantified by measuring the absorbance at 450 nm using a microplate reader Victor 3 manufactured by PerkinElmer, Inc., and the results are shown in Table 4 below.

PARP-1 (poly[ADP-ribose] polymerase 1) enzyme, sequence (P09874 whole entry): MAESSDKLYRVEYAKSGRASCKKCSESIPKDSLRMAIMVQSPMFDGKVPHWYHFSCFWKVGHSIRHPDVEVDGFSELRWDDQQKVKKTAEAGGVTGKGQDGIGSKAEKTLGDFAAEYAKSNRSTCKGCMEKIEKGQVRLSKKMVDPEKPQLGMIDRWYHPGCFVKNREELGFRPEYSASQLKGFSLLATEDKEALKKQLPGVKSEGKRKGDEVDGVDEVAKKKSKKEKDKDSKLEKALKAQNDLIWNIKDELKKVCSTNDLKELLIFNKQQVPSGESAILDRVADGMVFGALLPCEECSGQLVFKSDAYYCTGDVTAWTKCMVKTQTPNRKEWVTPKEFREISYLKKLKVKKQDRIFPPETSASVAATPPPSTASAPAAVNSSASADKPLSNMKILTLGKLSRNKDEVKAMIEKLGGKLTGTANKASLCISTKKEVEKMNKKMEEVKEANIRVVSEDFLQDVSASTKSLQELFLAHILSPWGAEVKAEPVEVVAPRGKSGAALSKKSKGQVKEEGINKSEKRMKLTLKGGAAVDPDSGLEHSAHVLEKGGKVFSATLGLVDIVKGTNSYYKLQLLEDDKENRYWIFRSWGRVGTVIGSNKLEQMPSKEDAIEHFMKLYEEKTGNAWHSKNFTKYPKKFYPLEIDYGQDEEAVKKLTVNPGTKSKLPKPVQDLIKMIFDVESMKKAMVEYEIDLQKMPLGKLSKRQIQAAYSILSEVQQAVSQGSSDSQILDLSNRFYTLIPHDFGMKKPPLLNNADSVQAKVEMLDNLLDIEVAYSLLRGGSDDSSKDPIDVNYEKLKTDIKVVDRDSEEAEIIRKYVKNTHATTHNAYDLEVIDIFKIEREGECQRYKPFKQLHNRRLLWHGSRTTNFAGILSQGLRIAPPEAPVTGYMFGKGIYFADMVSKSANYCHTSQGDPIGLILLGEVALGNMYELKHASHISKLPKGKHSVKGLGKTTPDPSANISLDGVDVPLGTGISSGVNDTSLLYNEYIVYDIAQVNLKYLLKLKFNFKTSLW

Row | SMILES | IC50 [1] [nM] | protection of retinal outer nuclear layer (ONL) thickness [2] | inhibition at 0.001 µM [1] [%] | EC50 (ARPE-19 cells; Homo sapiens, ARPE-19, 6 h) [nM] | EC50 (ARPE-19 cells) [nM]
1 | N#Cc1ccc(N2CCN(CCCc3cc4cccc(F)c4c(=O)[nH]3)CC2)cc1 [Example 1, 4-(4-(3-(8-fluoro-1-oxo-1,2-dihydroisoquinolin-3-yl)propyl)piperazin-1-yl)benzonitrile] | 2.3 | the retina was protected | – | – | –
2 | N#Cc1ccc(C2=CCN(CCCc3cc4cccc(F)c4c(=O)[nH]3)CC2)nc1 [Example 46, 1′-(3-(8-fluoro-1-oxo-1,2-dihydroisoquinolin-3-yl)propyl)-1′,2′,3′,6′-tetrahydro-[2,4′-bipyridine]-5-carbonitrile] | 1.66 | the retina was protected | 50 to 80 | – | –
3 | N#Cc1ccc(C2=CCN(C(=O)CCc3cc4cccc(F)c4c(=O)[nH]3)CC2)nc1 [Example 88, 1′-(3-(8-fluoro-1-oxo-1,2-dihydroisoquinolin-3-yl)propanoyl)-1′,2′,3′,6′-tetrahydro-[2,4′-bipyridine]-5-carbonitrile] | – | – | < 50 | 629 | –
4 | Cc1cc(F)cc2c(=O)[nH]c(CCC(=O)N3CC=C(c4ccc(C#N)cn4)CC3)cc12 [Example 165, 1′-(3-(7-fluoro-5-methyl-1-oxo-1,2-dihydroisoquinolin-3-yl)propanoyl)-1′,2′,3′,6′-tetrahydro-[2,4′-bipyridine]-5-carbonitrile] | – | – | < 50 | < 150 | 108
5 | O=c1[nH]c(CCCN2C3CCC2CN(c2ccc(Cl)cc2)C3)cc2ncccc12 [Example 228, 7-(3-(3-(4-chlorophenyl)-3,8-diazabicyclo[3.2.1]octan-8-yl)propyl)-1,6-naphthyridin-5(6H)-one] | – | – | 50 to 80 | < 150 | 144
6 | Cc1ccc(F)c2c(=O)[nH]c(CCC(=O)N3CC(NC(=O)C4CC4)C3)cc12 [Example 275, N-(1-(3-(8-fluoro-5-methyl-1-oxo-1,2-dihydroisoquinolin-3-yl)propanoyl)azetidin-3-yl)cyclopropanecarboxamide] | – | – | < 50 | – | –
7 | Cc1ccc(F)c2c(=O)[nH]c(CCC(=O)N3CCC(NC(=O)C4CC4)CC3)cc12 [Example 276, N-(1-(3-(8-fluoro-5-methyl-1-oxo-1,2-dihydroisoquinolin-3-yl)propanoyl)piperidin-4-yl)cyclopropanecarboxamide] | – | – | < 50 | – | –
